Assays:
[1] = tested on: spontaneously hypertensive rats (SHR), mean blood pressure; assay: Antihypertensive activities on spontaneously hypertensive rat (intravenously); format: in vivo, rat (male spontaneously hypertensive rats; settings: iv, anesthetized male SHR, i.v., cumulative dosing, read-out: ED20 (the dose which lowered the blood pressure by 20%)
Method: Animals were anesthetized with urethane: α-chloralose.
A cannula was inserted into the carotid artery for measuring the mean blood pressure via a pressure transducer. A test compound was cumulatively administered through the cannula inserted into the femoral vein with an interval of 30 minutes. Variation of blood pressure was determined as the percentage change in the blood pressure before administration of the test compound, and the ED20 (the dose which lowered the blood pressure by 20%) was calculated from a dose-response curve.

[2] = tested on: spontaneously hypertensive rats (SHR), systolic blood pressure; assay: Antihypertensive effects on conscious SHR (oral), Compound Nos. 18 and 19; format: in vivo, rat (male spontaneously hypertensive rats; settings: 3.0 mg/kg oral
Method: Antihypertensive effects of- 5-amino-N-cyano-N'-(2-nitroxyethyl)-3-pyridinecarboximidamide (N-cyano-N'-(2-nitroxyethyl)-5-(3-aminopyridine)carboximidamide; Compound No. 18) and N-cyano-5-ethylamino-N'-(2-nitroxyethyl)-3-pyridinecarboximidamide (N-cyano-N'-(2-nitroxyethyl)-5-[3-(N-ethylaminopyridine)]carboximidamide; Compound No. 19) were assessed by comparison with those of the methanesulfonate salt of N-cyano-N'-(2-nitroxyethyl)-3-pyridinecarboximidamide (compound described in Japanese Patent Laid-Open Publication No. 163061/1991) as a reference compound which is thought to be a well-known compound most similar to the compound of the present invention.
(§1) Systolic blood pressure (SBP) was measured with the tail cuff method.
(§2) Each of the compound Nos. 18 and 19 was dissolved in an equivalent mixture of polyethylene glycol 200 and physiological saline, and the reference compound was dissolved in physiological saline. The compounds were administered orally with the aid of an oral probe. SBP was measured before administration and 1, 2, 4, 6, 8, 12 and 24 hours after administration of the compound. The results were expressed as the percentage change in SBP observed before administration.

[3] = tested on: coronary blood flow (circumflex branch of the left coronary artery), beagles; assay: Coronary dilating effect on beagles (coronary blood flow, anesthetized dog); format: in vivo; settings: i.v., 10 Mg/Kg
Method: Coronary dilating effects of 5-amino-N-cyano-N'-(2-nitroxyethyl)-3-pyridinecarboximidamide (Compound No. 18) of the present invention was assessed by comparison with those of N-cyano-N'-(2-nitroxyethyl)-3-pyridinecarboximidamide methanesulfonic acid (compound described in Japanese Patent Laid-Open Publication No. 163061/1991) which is thought to be a well-known compound most similar to the compound of the present invention.
A dog (body weight, 8.3 kg) was anesthetized with 30 mg/kg of pentobarbital sodium intravenously. Respiration was maintained with room air through a cuffed endotracheal tube. The drug was administered through the femoral vein, and the coronary blood flow was measured by a probe attached to the circumflex branch of the left coronary artery.

[4] = tested on: spontaneously hypertensive rats (SHR), systolic blood pressure; assay: Time course of antihypertensive activity in conscious SHR (oral), Compound No. 16; format: in vivo, rat (male spontaneously hypertensive rats; settings: 3.0 mg/kg oral
Method: Time course of antihypertensive activity of 5-amino-N-cyano-N'-(2-phenethyl)pyridinecarboximidamide (Compound No. 16) was examined.
as §1
as §2, with “The” for “Each of the”, “No. 16” for “Nos. 18 and 19”, “and” for “and the reference compound was dissolved in physiological saline. The compounds were”, “obtained” for “observed”

rat aorta = assay: Vasodilating effect in a rat aorta (relaxation of KCl-induced contraction); set-up: species or system rat (male Wistar rat); settings: isolated rat thoracic aorta, 40 mM KCl; read-out: IC50 (concentration for inhibiting 50% of the tension induced by KCl)
Method: Physiological effect of the compound of the present invention was tested by the method with use of an isolated rat aorta.
Thoracic aorta was isolated from a male Wistar rat (body weight, 250-350 g) exsanguinated to death for obtaining ring preparations having a width of 3 mm. The preparations were suspended into an organ bath filled with the Krebs-Ringer solution through which a mixed gas of 95% O2 and 5% CO2 had been aerated at 37° C. A resting tension of 1 g was applied to the preparation. After the tension in the preparation was stabilized, the solution in the organ bath was exchanged with an equimolar solution containing 40 mM KC1 to increase the tension of the preparation. When the tension induced by KCl become stable, the test compound was cumulatively added to the organ bath to relax the preparation. Relaxation response was expressed as percentage inhibition of KCl-induced contraction, and the IC50 value (concentration for inhibiting 50% of the tension induced by KCl) was calculated from the average concentration-response curve by the Probit method.

beagles, blood pressure = assay: Antihypertensive activity on anesthetized beagles (intravenously); format: in vivo, dog (beagles); settings: for Antihypertensive activity (%): i.v.
Method: Antihypertensive activities of 5-amino-N-cyano-N'-[2-(2-chlorophenyl)ethyl]-3-pyridinecarboximidamide (N-cyano-N'-[2-(2-chlorophenyl)ethyl]-5-(3aminopyridine)carboximidamide; Compound No. 6) according to the present invention was assessed by comparison with those of N-cyano-N'-[2-(2-chlorophenyl)ethyl]-3-pyridinecarboximidamide which is thought to be a wellknown compound most similar to the compound of the present invention (see Japanese Patent Laid-Open Publication No. 163061/1991).
Experiments were carried out with beagles (body weight, 9.2-10.4 kg) under anesthetization by intravenous administering 30 mg/kg of pentobarbital sodium. A cannula was inserted into the right femoral artery for measuring blood pressure. […]

Structure (SMILES): CCc1cncc(C(=NCCc2ccccc2Cl)NC#N)c1 [compound 2, N-cyano-N'-[2-(2-chlorophenyl)ethyl]-5-ethyl-3-pyridinecarboximidamide]
- ED20 [1]: 0.007 mg/kg

Structure (SMILES): N#CNC(=NCCO[N+](=O)[O-])c1cccnc1 [Reference Compound, N-cyano-N'-(2-nitroxyethyl)-3-pyridinecarboximidamide, reference compound]
- decrease in blood pressure / antihypertensive effect [2]: antihypertensive effect was also observed
- duration of the antihypertensive effect [2]: about 6 hours
- percent change in SBP observed before administration of the compound ([2]; 1 hour after administration): -55.9%
- percent change in SBP observed before administration of the compound ([2]; 2 hour after administration): -41.5%
- percent change in SBP observed before administration of the compound ([2]; 4 hour after administration): -10.6%
- percent change in SBP observed before administration of the compound ([2]; 6 hour after administration): -6.8%
- increase of coronary blood flow [3]: increase in coronary blood flow was observed
- time for which the increase of coronary blood flow was retained [3]: ≤ 10 min
- percent change of coronary blood flow as compared with the blood flow before administration ([3]; 1 min after dosage): 219.0%
- percent change of coronary blood flow as compared with the blood flow before administration ([3]; 3 min after dosage): 42.9%
- percent change of coronary blood flow as compared with the blood flow before administration ([3]; 5 min after dosage): 14.3%
- percent change of coronary blood flow as compared with the blood flow before administration ([3]; 10 min after dosage): 0.0%

Structure (SMILES): CCNc1cncc(C(=NCCc2ccccc2Cl)NC#N)c1 [compound 10, N-cyano-N'-[2-(2-chlorophenyl)ethyl]-5-ethylamino-3-pyridinecarboximidamide]
- ED20 [1]: 0.0079 mg/kg

Structure (SMILES): N#CN=C(NCCc1ccccc1)c1cncc(N)c1 [Compound No. 16, 5-amino-N-cyano-N'-(2-phenethyl)-3-pyridine-carboximidamide]
- ED20 [1]: 0.028 mg/kg
- decrease in blood pressure [4]: decrease in blood pressure was observed
- duration of the antihypertensive effect [4]: ≥ 12 h
- percentage change in SBP obtained before administration ([4]; 1 hour after administration): -45.3%
- percentage change in SBP obtained before administration ([4]; 2 hour after administration): -23.9%
- percentage change in SBP obtained before administration ([4]; 4 hour after administration): -42.3%
- percentage change in SBP obtained before administration ([4]; 6 hour after administration): -27.9%
- percentage change in SBP obtained before administration ([4]; 8 hour after administration): -22.8%
- percentage change in SBP obtained before administration ([4]; 12 hour after administration): -15.1%
- percentage change in SBP obtained before administration ([4]; 24 hour after administration): -8.2%

Structure (SMILES): N#CNC(=NCCc1ccccc1Cl)c1ccc(N)nc1 [compound 5, 6-amino-N-cyano-N'-[2-(2-chlorophenyl)ethyl]-3-pyridinecarboximidamide]
- ED20 [1]: 0.0333 mg/kg

Structure (SMILES): N#CNC(=NCCO[N+](=O)[O-])c1ccc(N)nc1 [compound 20, 6-amino-N-cyano-N'-(2-nitroxyethyl)-3-pyridinecarboximidamide]
- IC50 (rat aorta): 2.7 µM

Structure (SMILES): CCN(CC)c1ccc(C(=NCCO[N+](=O)[O-])NC#N)cn1 [compound 21, N-cyano-6-diethylamino-N'-(2-nitroxyethyl)-3-pyridinecarboximidamide]
- IC50 (rat aorta): 4.6 µM

Structure (SMILES): N#CNC(=NCCc1ccccc1Cl)c1cccnc1 [N-cyano-N'-[2-(2-chlorophenyl)ethyl]-3-pyridinecarboximidamide, reference compound]
- decrease in blood pressure (beagles, blood pressure; 10 and 30 μg/kg): decrease in blood pressure was observed
- recovery of the decrease in blood pressure after administration (beagles, blood pressure; both doses, 10 and 30 μg/kg): ≤ 10 min
- Antihypertensive activity (%) (beagles, blood pressure; dose 3 μg/kg, 0 min after dosage): 0.0%
- Antihypertensive activity (%) (beagles, blood pressure; dose 3 μg/kg, 1 min after dosage): 0.0%
- Antihypertensive activity (%) (beagles, blood pressure; dose 3 μg/kg, 2 min after dosage): 1.9%
- Antihypertensive activity (%) (beagles, blood pressure; dose 3 μg/kg, 3 min after dosage): 1.9%
- Antihypertensive activity (%) (beagles, blood pressure; dose 10 μg/kg, 0 min after dosage): 0.0%
- Antihypertensive activity (%) (beagles, blood pressure; dose 10 μg/kg, 1 min after dosage): -23.4%
- Antihypertensive activity (%) (beagles, blood pressure; dose 10 μg/kg, 2 min after dosage): -17.7%
- Antihypertensive activity (%) (beagles, blood pressure; dose 10 μg/kg, 3 min after dosage): -13.1%
- Antihypertensive activity (%) (beagles, blood pressure; dose 10 μg/kg, 5 min after dosage): -4.7%
- Antihypertensive activity (%) (beagles, blood pressure; dose 30 μg/kg, 0 min after dosage): 0.0%
- Antihypertensive activity (%) (beagles, blood pressure; dose 30 μg/kg, 1 min after dosage): -41.7%
- Antihypertensive activity (%) (beagles, blood pressure; dose 30 μg/kg, 2 min after dosage): -39.8%
- Antihypertensive activity (%) (beagles, blood pressure; dose 30 μg/kg, 3 min after dosage): -33.3%
- Antihypertensive activity (%) (beagles, blood pressure; dose 30 μg/kg, 5 min after dosage): -16.7%
- Antihypertensive activity (%) (beagles, blood pressure; dose 30 μg/kg, 7.5 min after dosage): -2.8%
- Antihypertensive activity (%) (beagles, blood pressure; dose 30 μg/kg, 10 min after dosage): -0.9%

Structure (SMILES): N#CNC(=NCCc1ccccc1Cl)c1cncc(CO)c1 [compound 3, N-cyano-N'-[2-(2-chlorophenyl)ethyl]-5-hydroxymethyl-3-pyridinecarboximidamide]
- ED20 [1]: 0.0087 mg/kg

Structure (SMILES): CC(=O)Nc1cncc(C(=NC#N)NCCc2ccccc2Cl)c1 [compound 7, 5-acetamide-N-cyano-N'-[2-(2-chlorophenyl)-ethyl]-3-pyridinecarboximidamide]
- ED20 [1]: 0.0123 mg/kg

Structure (SMILES): Cc1cncc(C(=NCCc2ccccc2Cl)NC#N)c1 [Compound No. 1, N-cyano-N'-[2-(2-chlorophenyl)ethyl]-5-methyl-3-pyridinecarboximidamide]
- ED20 [1]: 0.0171 mg/kg

Structure (SMILES): CCNc1cncc(C(=NCCO[N+](=O)[O-])NC#N)c1 [Compound No. 19, N-cyano-5-ethylamino-N'-(2-nitroxyethyl)-3-pyridinecarboximidamide]
- IC50 (rat aorta): 10 µM
- decrease in blood pressure / antihypertensive effect [2]: decrease in blood pressure was observed
- duration of the antihypertensive effect [2]: ≥ 12 h
- percent change in SBP observed before administration of the compound ([2]; 1 hour after administration): -60.2%
- percent change in SBP observed before administration of the compound ([2]; 2 hour after administration): -47.2%
- percent change in SBP observed before administration of the compound ([2]; 4 hour after administration): -24.3%
- percent change in SBP observed before administration of the compound ([2]; 6 hour after administration): -23.9%
- percent change in SBP observed before administration of the compound ([2]; 8 hour after administration): -25.9%
- percent change in SBP observed before administration of the compound ([2]; 12 hour after administration): -27.7%
- percent change in SBP observed before administration of the compound ([2]; 24 hour after administration): -9.8%
